Key:
[1] = Chemical half-life was evaluated at 37 degree C expressed as stability towards hydrolysis; type: physicochemical
[2] = pKa value was determined; type: physicochemical
[3] = molecular target: T1, Neutrophil elastase (Homo sapiens) (UniProt P08246); assay: Inhibition of human leukocyte elastase II (HLE-II) as second order rate constant
T1 sequence (whole entry): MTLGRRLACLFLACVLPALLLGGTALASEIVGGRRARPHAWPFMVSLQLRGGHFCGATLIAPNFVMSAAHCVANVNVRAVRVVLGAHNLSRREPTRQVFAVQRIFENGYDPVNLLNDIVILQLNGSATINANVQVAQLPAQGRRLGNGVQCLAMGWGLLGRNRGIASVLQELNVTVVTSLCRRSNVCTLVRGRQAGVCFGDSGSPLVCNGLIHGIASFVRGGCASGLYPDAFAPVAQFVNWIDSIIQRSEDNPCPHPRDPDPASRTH

SMILES	half-life [1] [h]	pKa [2]	k on [3] [M⁻¹ s⁻¹]
CO[C@H]1C(=O)N2C(C(=O)C(C)(C)C)=C(CSc3nnnn3C)CS(=O)(=O)[C@H]12	24	11.6	
CO[C@H]1C(=O)N2C(C(=O)c3ccccc3)=C(CSc3nnnn3C)CS(=O)(=O)[C@H]12	8.6	8.4	
CO[C@H]1C(=O)N2C(C(=O)c3ccccc3)=C(C)CS(=O)(=O)[C@H]12	33	9.6	
CO[C@H]1C(=O)N2C(C(=O)c3ccccc3)=C(C)C(Sc3nnnn3C)S(=O)(=O)[C@H]12 (some centres not stated)	120	4.8	200
CO[C@H]1C(=O)N2C(C(=O)c3ccccc3)=C(C)C(Sc3nc(=O)c(=O)[nH]n3C)S(=O)(=O)[C@H]12 (some centres not stated)	86	5.7	930
CO[C@H]1C(=O)N2C(C(=O)C(C)(C)C)=C(CSc3nnc(C)s3)CS(=O)(=O)[C@H]12	37	11.9	32000
CO[C@H]1C(=O)N2C(C(=O)C(C)(C)C)=C(C)CS(=O)(=O)[C@H]12	130		
CO[C@H]1C(=O)N2C(C(=O)C(C)(C)C)=C(CSc3nnc(C)s3)C(Sc3nnc(C)s3)S(=O)(=O)[C@H]12 (some centres not stated)	46	5.8	21000
CO[C@H]1C(=O)N2C(C(=O)C(C)(C)C)=C(C)C(Sc3nnnn3C)S(=O)(=O)[C@H]12 (some centres not stated)	14.8	7.9	100000
CO[C@H]1C(=O)N2C(C(=O)C(C)(C)C)=C(C)C(Sc3nnc(C)s3)S(=O)(=O)[C@H]12 (some centres not stated)	26	7.5	42000
CO[C@H]1C(=O)N2C(C(=O)C(C)(C)C)=C(CSc3nnnn3C)C(Sc3nnnn3C)S(=O)(=O)[C@H]12 (some centres not stated)	24	6	
CO[C@H]1C(=O)N2C(C(=O)C(C)(C)C)=C(C)C(Sc3nc(=O)c(=O)[nH]n3C)S(=O)(=O)[C@H]12 (some centres not stated)	16.3	8.9	54000
CO[C@H]1C(=O)N2C(C(=O)c3ccccc3)=C(CSc3nnnn3C)C(Sc3nnnn3C)S(=O)(=O)[C@H]12 (some centres not stated)	850	3.5	
